In article PMC2806602 (The Journal of neuroscience : the official journal of the …, 2009):
Numbering of substitutions follows the chain as printed.

Assays:
Type in all cases: cell-based
GluRδ2^Lc E531C+D782C = target: T1, GluRδ2^Lc E531C+D782C (Rattus norvegicus, UniProt Q63226, A654T/D782C/E531C); experiment: Two-electrode voltage-clamp recordings in Xenopus oocytes, GluRδ2^Lc E531C+D782C
T1 sequence (Q63226 24-1007 E531C/A654T/D782C): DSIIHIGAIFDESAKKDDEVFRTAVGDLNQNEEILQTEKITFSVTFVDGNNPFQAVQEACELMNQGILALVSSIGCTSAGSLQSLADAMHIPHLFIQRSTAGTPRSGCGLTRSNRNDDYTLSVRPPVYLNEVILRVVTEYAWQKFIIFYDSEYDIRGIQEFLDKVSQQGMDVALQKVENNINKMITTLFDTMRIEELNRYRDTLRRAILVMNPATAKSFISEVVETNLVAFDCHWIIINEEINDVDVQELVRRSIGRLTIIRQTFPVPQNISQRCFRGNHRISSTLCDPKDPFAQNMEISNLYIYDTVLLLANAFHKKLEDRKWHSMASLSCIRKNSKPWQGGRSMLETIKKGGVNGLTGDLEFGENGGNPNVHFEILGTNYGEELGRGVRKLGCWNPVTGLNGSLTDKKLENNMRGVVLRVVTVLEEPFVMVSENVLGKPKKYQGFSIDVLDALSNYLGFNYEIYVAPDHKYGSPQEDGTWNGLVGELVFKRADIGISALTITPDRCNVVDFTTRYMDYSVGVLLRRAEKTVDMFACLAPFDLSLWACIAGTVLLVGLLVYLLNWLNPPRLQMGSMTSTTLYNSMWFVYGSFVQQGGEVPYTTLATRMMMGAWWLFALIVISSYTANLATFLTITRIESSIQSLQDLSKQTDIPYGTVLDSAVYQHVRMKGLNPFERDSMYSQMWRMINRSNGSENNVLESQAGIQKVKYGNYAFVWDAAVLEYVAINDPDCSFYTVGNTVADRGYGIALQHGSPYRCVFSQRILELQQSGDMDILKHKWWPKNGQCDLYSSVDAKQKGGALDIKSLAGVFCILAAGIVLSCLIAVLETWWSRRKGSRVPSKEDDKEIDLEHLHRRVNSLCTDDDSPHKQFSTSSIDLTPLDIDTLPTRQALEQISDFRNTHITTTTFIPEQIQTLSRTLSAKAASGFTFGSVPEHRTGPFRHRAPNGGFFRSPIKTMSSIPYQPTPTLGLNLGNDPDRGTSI

GluRδ2^Lc E531A+D535A = target: T2, GluRδ2^Lc E531A+D535A (Rattus norvegicus, UniProt Q63226, A654T/D535A/E531A); experiment: Two-electrode voltage-clamp recordings in Xenopus oocytes, GluRδ2^Lc E531A+D535A
T2 sequence (Q63226 24-1007 E531A/D535A/A654T): T1 sequence (Q63226 24-1007 E531C/A654T/D782C) with C508A, D512A, C759D

GluRδ2^Lc E531A = target: T3, GluRδ2^Lc E531A (Rattus norvegicus, UniProt Q63226, A654T/E531A); experiment: Two-electrode voltage-clamp recordings in Xenopus oocytes, GluRδ2^Lc E531A
T3 sequence (Q63226 24-1007 E531A/A654T): T1 sequence (Q63226 24-1007 E531C/A654T/D782C) with C508A, C759D

| Ca^2+ potentiation (relative to baseline) (GluRδ2^Lc E531C+D782C; 3 mM Ca^2+, ± SEM) [fold] | Ca^2+ potentiation (relative to baseline) (GluRδ2^Lc E531A+D535A; 3 mM Ca^2+, ± SEM) [fold] | Ca^2+ potentiation (relative to baseline) (GluRδ2^Lc E531A; 3 mM Ca^2+, ± SEM) [fold] | D-serine + 0 mM Ca^2+ nH (GluRδ2^Lc E531C+D782C; Hill slope, 0 mM Ca^2+) | D-serine + 3 mM Ca^2+ nH (GluRδ2^Lc E531C+D782C; Hill slope, 3 mM Ca^2+) | D-serine + 0 mM Ca^2+ nH (GluRδ2^Lc E531A+D535A; Hill slope, 0 mM Ca^2+) | D-serine + 3 mM Ca^2+ nH (GluRδ2^Lc E531A+D535A; Hill slope, 3 mM Ca^2+) | D-serine + 0 mM Ca^2+ nH (GluRδ2^Lc E531A; Hill slope, 0 mM Ca^2+) | D-serine + 3 mM Ca^2+ nH (GluRδ2^Lc E531A; Hill slope, 3 mM Ca^2+) | SMILES |
| --- | --- | --- | --- | --- | --- | --- | --- | --- | --- |
| 0.9 ± 0.01 | 1.0 ± 0.04 | 1.6 ± 0.08 |  |  |  |  |  |  | [Ca+2] [Ca^2+, calcium] |
|  |  |  | 0.8 | 0.8 | 2.2 | 2.2 | 1.1 | 1.9 | N[C@H](CO)C(=O)O [D-serine] |
